# Results published in patent US20050043315A1, “Aminopyrimidine compounds, processes for their preparation and pharmaceutical compositions containing them” (priority 2002, published 2005).
row,Structure (SMILES),melting point [°C]
1,"CC(C)n1nc(-c2cnc(N)nc2-c2cccnc2)ccc1=O [Example 52, 6-[2-Amino-4-(3-pyridinyl)-5-pyrimidinyl]-2-isopropyl-3(2H)-pyridazinone]",204
2,"CC(C)n1nc(-c2cnc(N)nc2-c2ccncc2)ccc1=O [Example 53, 6-[2-Amino-4-(4-pyridinyl)-5-pyrimidinyl]-2-isopropyl-3(2H)-pyridazinone]",219
3,"CC(C)n1nc(-c2cnc(N)nc2-c2cccs2)ccc1=O [Example 55, 6-(2-Amino-4-(2-thienyl)-5-pyrimidinyl]-2-isopropyl-3(2H)-pyridazinone]",213
4,"Cc1ccccc1-c1nc(N)ncc1-c1ccc(=O)n(C(C)C)n1 [Example 56, 6-[2-Amino-4-(2-methylphenyl)-5-pyrimidinyl]-2-isopropyl-3(2H)-pyridazinone]",203
5,"Cc1cccc(-c2nc(N)ncc2-c2ccc(=O)n(C(C)C)n2)c1 [Example 57, 6-[2-Amino-4-(3-methylphenyl)-5-pyrimidinyl]-2-isopropyl-3(2H)-pyridazinone]",198
6,"COc1ccccc1-c1nc(N)ncc1-c1ccc(=O)n(C(C)C)n1 [Example 58, 6-[2-Amino-4-(2-methoxyphenyl)-5-pyrimidinyl]-2-isopropyl-3(2H)-pyridazinone]",170
7,"COc1cccc(-c2nc(N)ncc2-c2ccc(=O)n(C(C)C)n2)c1 [Example 59, 6-[2-Amino-4-(3-methoxyphenyl)-5-pyrimidinyl]-2-isopropyl-3(2H)-pyridazinone]",211
8,"COc1ccc(-c2nc(N)ncc2-c2ccc(=O)n(C)n2)cc1 [Example 60, 6-[2-Amino-4-(4-methoxyphenyl)-5-pyrimidinyl]-2-methyl-3(2H)-pyridazinone]",259
9,"Cn1nc(-c2cnc(N)nc2-c2ccc(Cl)cc2)ccc1=O [Example 61, 6-[2-Amino-4-(4-chlorophenyl)-5-pyrimidinyl]-2-methyl-3(2H)-pyridazinone]",264
10,"Cn1nc(-c2cnc(N)nc2-c2cccc(F)c2)ccc1=O [Example 62, 6-[2-Amino-4-(3-fluorophenyl)-5-pyrimidinyl]-2-methyl-3(2H)-pyridazinone]",212.5
11,"COc1ccc(-c2nc(N)ncc2-c2ccc(=O)n(C)n2)cc1F [Example 63, 6-(2-Amino-4-(3-fluoro-4-methoxyphenyl)-5-pyrimidinyl]-2-methyl-3(2H)-pyridazinone]",245
12,"Cn1nc(-c2cnc(N)nc2-c2ccco2)ccc1=O [Example 64, 6-[2-Amino-4-(2-furyl)-5-pyrimidinyl]-2-methyl-3(2H)-pyridazinone]",234
13,"Cc1ccc(-c2nc(N)ncc2-c2ccc(=O)n(C)n2)cc1 [Example 65, 6-[2-Amino-4-(4-methylphenyl)-5-pyrimidinyl]-2-methyl-3(2H)-pyridazinone]",230
14,"Cn1nc(-c2cnc(N)nc2-c2ccc(F)c(F)c2)ccc1=O [Example 66, 6-[2-Amino-4-(3,4-difluorophenyl)-5-pyrimidinyl]-2-methyl-3(2H)-pyridazinone]",231
15,"COc1ccc(-c2nc(N)ncc2-c2ccc(=O)n(C)n2)cc1OC [Example 67, 6-[2-Amino-4-(3,4-dimethoxyphenyl)-5-pyrimidinyl]-2-methyl-3(2H)-pyridazinone]",232
16,"Cn1nc(-c2cnc(N)nc2-c2ccc(Cl)c(Cl)c2)ccc1=O [Example 68, 6-[2-Amino-4-(3,4-dichlorophenyl)-5-pyrimidinyl]-2-methyl-3(2H)-pyridazinone]",238

row,Structure (SMILES),melting point [°C]
1,"Cn1nc(-c2cnc(N)nc2-c2cccs2)ccc1=O [Example 69, 6-[2-Amino-4-(2-thienyl)-5-pyrimidinyl]-2-methyl-3(2H)-pyridazinone]",270
2,"Cc1ccccc1-c1nc(N)ncc1-c1ccc(=O)n(C)n1 [Example 70, 6-[2-Amino-4-(2-methylphenyl)-5-pyrimidinyl]-2-methyl-3(2H)-pyridazinone]",229
3,"Cc1cccc(-c2nc(N)ncc2-c2ccc(=O)n(C)n2)c1 [Example 71, 6-[2-Amino-4-(3-methylphenyl)-5-pyrimidinyl]-2-methyl-3(2H)-pyridazinone]",214
4,"COc1ccccc1-c1nc(N)ncc1-c1ccc(=O)n(C)n1 [Example 72, 6-[2-Amino-4-(2-methoxyphenyl)-5-pyrimidinyl]-2-methyl-3(2H)-pyridazinone]",225
5,"COc1cccc(-c2nc(N)ncc2-c2ccc(=O)n(C)n2)c1 [Example 73, 6-[2-Amino-4-(3-methoxyphenyl)-5-pyrimidinyl]-2-methyl-3(2H)-pyridazinone]",195
6,"Cn1nc(-c2cnc(N)nc2-c2ccccc2Br)ccc1=O [Example 74, 6-[2-Amino-4-(2-bromophenyl)-5-pyrimidinyl]-2-methyl-3(2H)-pyridazinone]",> 250
7,"CSc1nc(N)nc(-c2ccccc2)c1-c1ccc(=O)n(C(C)C)n1 [Example 78, 6-[2-amino-4-(methylthio)-6-phenyl-5-pyrimidinyl]-2-isopropyl-3(2H)-pyridazinone]",221 to 222
8,"CC(C)n1nc(-c2c(-c3ccccc3)nc(N)nc2[S+](C)[O-])ccc1=O (stereo not shown) [Example 79, 6-[2-amino-4-(methylsulfinyl)-6-phenyl-5-pyrimidinyl]-2-isopropyl-3(2H)-pyridazinone]",225 to 227
9,"CC(C)n1nc(-c2c(-c3ccccc3)nc(N)nc2S(C)(=O)=O)ccc1=O [Example 79, 6-[2-amino-4-(methylsulfonyl)-6-phenyl-5-pyrimidinyl]-2-isopropyl-3(2H)-pyridazinone]",210 to 211
10,"COc1nc(N)nc(-c2ccccc2)c1-c1ccc(=O)n(C(C)C)n1 [Example 80, 6-(2-amino-4-methoxy-6-phenyl-5-pyrimidinyl)-2-isopropyl-3(2H)-pyridazinone]",230 to 233
11,"CCOc1nc(N)nc(-c2ccccc2)c1-c1ccc(=O)n(C(C)C)n1 [Example 81, 6-(2-amino-4-ethoxy-6-phenyl-5-pyrimidinyl)-2-isopropyl-3(2H)-pyridazinone]",187.5 to 188.5
12,"CC(C)Oc1nc(N)nc(-c2ccccc2)c1-c1ccc(=O)n(C(C)C)n1 [Example 82, 6-(2-Amino-4-isopropoxy-6-phenyl-5-pyrimidinyl)-2-isopropyl-3(2H)-pyridazinone]",176.5 to 177.5
13,"CC(C)n1nc(-c2c(OC3CCC3)nc(N)nc2-c2ccccc2)ccc1=O [Example 83, 6-[2-Amino-4-(cyclobutyloxy)-6-phenyl-5-pyrimidinyl]-2-isopropyl-3(2H)-pyridazinone]",161 to 162.5
14,"C=CCOc1nc(N)nc(-c2ccccc2)c1-c1ccc(=O)n(C(C)C)n1 [Example 84, 6-[4-(Allyloxy)-2-amino-6-phenyl-5-pyrimidinyl]-2-isopropyl-3(2H)-pyridazinone]",130.5 to 132.5
15,"C#CCOc1nc(N)nc(-c2ccccc2)c1-c1ccc(=O)n(C(C)C)n1 [Example 85, 6-[2-amino-4-phenyl-6-(2-propynyloxy)-5-pyrimidinyl]-2-isopropyl-3(2H)-pyridazinone]",145 to 146.6
